# Test results taken from patent US8609608B2, “Antimicrobial peptides” (C3 Jian, Inc., priority 2007, dated 2013).
# Where no end group is shown, it is not given here.
# Legend:
# S. mitis ATCC 903 = format: cell-based, Streptococcus mitis
# Description: (§1) S. mutans clinical isolates UA140 (32), UA159 (1), T8 (33), ATCC 25175, GS5 (Kuramitsu and Ingersoll (1977) Infect Immun., 17: 330-337), and all gram-positive strains listed below (see Table 9) were grown under anaerobic conditions in brain heart infusion or Todd-Hewitt (TH) broth (Difco) overnight at 37° C. prior to use (Eckert et al. (2006) Antimicrob. Agents Chemother. 50: 3651-3657). Veillonella atypica PK1910 was grown in Veillonella medium (Egland et al. (2004) Proc. Natl. Acad. Sci., USA, 101: 16917-16922). All strains were grown in an anaerobic atmosphere of 80% N2, 10% CO2, and 10% H2.
# (§2) Antibacterial growth inhibition assays were performed using sterile 96-well plates in a final volume of 100 μl, TH or Veillonella medium as described previously (Qi et al. (2005) FEMS Microbial Lett. 251: 321-326). Briefly, bacterial cells were grown overnight to an optical density at 600 nm of 0.75 to 0.8 (corresponding to 1×10^8 CFU/ml) and then diluted to 1×10^5 CFU/ml in broth and aliquoted onto plates. An appropriate volume of peptide stock solution (5 to 20 mg/ml, in water or methanol, depending on solubility) was then added to the first column of the plate to give 500 μg/ml or 512 μg/ml, followed by serial 1:2 dilutions across the plate to give wells containing peptides ranging from 500 to 1.95 μg/ml or 512 to 2 μg/ml. Methanol alone was also added to control for the effects of the solvent. The plates were then incubated at 37° C. under anaerobic conditions for 16 to 20 h without shaking, and the MIC was determined as the concentration of peptide present in the last clear well after visual inspection. Up to 5% (vol/vol) methanol was found not to be antimicrobial (data not shown). MICs were determined in triplicate for all bacteria.
# L. casei ATCC 4646 = format: cell-based, Lactobacillus casei
# Description: as §1, §2
# [1] = system: clinical isolates of S. mutans; format: cell-based, Streptococcus mutans; details: for MIC (fusion library peptides) / MIC / MIC S. mutans: clinical isolates of
# Description: as §1, §2
# S. sanguinis NY101 = format: cell-based, Streptococcus sanguinis
# Description: as §1, §2
# V. atypica PK1910 = format: cell-based, Veillonella atypica
# Description: as §1, §2
# S. gordonii Challis DL1 = format: cell-based, Streptococcus gordonii
# Description: as §1, §2
# P. aeruginosa = assay: MIC against P. aeruginosa; format: cell-based, Pseudomonas aeruginosa
substance,measurement,setting,value
"RWRRLLKKLHHLLHGGGFKKFWKWFRRF-NH2 [FBα-20, RWRRLLKKLHHLLH-GGG-FKKFWKWFRRF*]",MIC S. mitis ATCC 903,S. mitis ATCC 903,32 µg/mL
same,MIC L. casei ATCC 4646,L. casei ATCC 4646,8 µg/mL
same,MIC (fusion library peptides),[1],4 to 8 µg/mL
same,MIC S. sanguinis NY101,S. sanguinis NY101,16 µg/mL
same,MIC V. atypica PK1910,V. atypica PK1910,8 µg/mL
same,MIC S. gordonii Challis DL1,S. gordonii Challis DL1,16 µg/mL
"RWRRLLKKLHHLLH-NH2 [α-11, RWRRLLKKLHHLLH*]",MIC S. mitis ATCC 903,S. mitis ATCC 903,32 µg/mL
same,MIC L. casei ATCC 4646,L. casei ATCC 4646,16 µg/mL
same,MIC,[1],8 µg/mL
same,MIC S. sanguinis NY101,S. sanguinis NY101,16 µg/mL
same,MIC V. atypica PK1910,V. atypica PK1910,4 µg/mL
same,MIC S. gordonii Challis DL1,S. gordonii Challis DL1,16 µg/mL
"RWRWRWFGGGFKKFWKWFRRF-NH2 [FBRW-22, RWRWRWF-GGG-FKKFWKWFRRF*]",MIC S. mitis ATCC 903,S. mitis ATCC 903,64 µg/mL
same,MIC L. casei ATCC 4646,L. casei ATCC 4646,8 µg/mL
same,MIC (fusion library peptides),[1],4 to 8 µg/mL
same,MIC S. sanguinis NY101,S. sanguinis NY101,8 µg/mL
same,MIC V. atypica PK1910,V. atypica PK1910,8 µg/mL
same,MIC S. gordonii Challis DL1,S. gordonii Challis DL1,16 µg/mL
"FKKFWKWFRRF-NH2 [Peptide B-33, FKKFWKWFRRF*]",MIC S. mitis ATCC 903,S. mitis ATCC 903,32 µg/mL
same,MIC L. casei ATCC 4646,L. casei ATCC 4646,32 µg/mL
same,MIC,[1],8 to 24 µg/mL
same,MIC S. sanguinis NY101,S. sanguinis NY101,32 µg/mL
same,MIC V. atypica PK1910,V. atypica PK1910,16 µg/mL
same,MIC S. gordonii Challis DL1,S. gordonii Challis DL1,32 µg/mL
"LKRFLKWFKRFGGGRWRWRWF-NH2 [FBRW-16, LKRFLKWFKRF-GGG-RWRWRWF*]",MIC S. mitis ATCC 903,S. mitis ATCC 903,64 µg/mL
same,MIC L. casei ATCC 4646,L. casei ATCC 4646,16 µg/mL
same,MIC (fusion library peptides),[1],4 to 16 µg/mL
same,MIC S. sanguinis NY101,S. sanguinis NY101,16 µg/mL
same,MIC V. atypica PK1910,V. atypica PK1910,8 µg/mL
same,MIC S. gordonii Challis DL1,S. gordonii Challis DL1,64 µg/mL
"RWRWRWFGGGLKRFLKWFKRF-NH2 [FBRW-24, RWRWRWF-GGG-LKRFLKWFKRF*]",MIC S. mitis ATCC 903,S. mitis ATCC 903,64 µg/mL
same,MIC L. casei ATCC 4646,L. casei ATCC 4646,8 µg/mL
same,MIC (fusion library peptides),[1],8 µg/mL
same,MIC S. sanguinis NY101,S. sanguinis NY101,16 µg/mL
same,MIC V. atypica PK1910,V. atypica PK1910,16 µg/mL
same,MIC S. gordonii Challis DL1,S. gordonii Challis DL1,32 µg/mL
"LRIHARFKVHIRLKF [Peptide S3L8-5, LRIHARFKVHIRLKF]",MIC L. casei,L. casei,8 µg/mL
same,MIC S. mutans,[1],60 µg/mL
same,MIC E. faecalis,E. faecalis,12 µg/mL
same,MIC P. aeruginosa,P. aeruginosa,>125 µg/mL
same,MIC S. aureus,S. aureus,>125 µg/mL
"VIRHVWVRKLF [Peptide S3L8-27, VIRHVWVRKLF]",MIC L. casei,L. casei,>62.5 µg/mL
same,MIC S. mutans,[1],60 µg/mL
same,MIC E. faecalis,E. faecalis,>125 µg/mL
same,MIC P. aeruginosa,P. aeruginosa,>125 µg/mL
same,MIC S. aureus,S. aureus,>125 µg/mL
"FVFRHKWVWKHRFLF [Peptide S3L8-1, FVFRHKWVWKHRFLF]",MIC L. casei,L. casei,62.5 µg/mL
same,MIC S. mutans,[1],16 µg/mL
same,MIC E. faecalis,E. faecalis,32 µg/mL
same,MIC P. aeruginosa,P. aeruginosa,>125 µg/mL
same,MIC S. aureus,S. aureus,>125 µg/mL
"IKQLLHFFQRFGGGRWRWRWF-NH2 [FBRW-15, IKQLLHFFQRF-GGG-RWRWRWF*]",MIC S. mitis ATCC 903,S. mitis ATCC 903,64 µg/mL
same,MIC L. casei ATCC 4646,L. casei ATCC 4646,16 µg/mL
same,MIC (fusion library peptides),[1],4 to 16 µg/mL
same,MIC S. sanguinis NY101,S. sanguinis NY101,16 µg/mL
same,MIC V. atypica PK1910,V. atypica PK1910,8 µg/mL
same,MIC S. gordonii Challis DL1,S. gordonii Challis DL1,32 µg/mL
"FKFKHKLIF [Peptide S3L8-36, FKFKHKLIF]",MIC L. casei,L. casei,>62.5 µg/mL
same,MIC S. mutans,[1],>125 µg/mL
same,MIC E. faecalis,E. faecalis,>125 µg/mL
same,MIC P. aeruginosa,P. aeruginosa,>125 µg/mL
same,MIC S. aureus,S. aureus,>125 µg/mL
"WRWRARWRWRLRWRF [Peptide S3L8-3, WRWRARWRWRLRWRF]",MIC L. casei,L. casei,16 µg/mL
same,MIC S. mutans,[1],4 µg/mL
same,MIC E. faecalis,E. faecalis,8 µg/mL
same,MIC P. aeruginosa,P. aeruginosa,>125 µg/mL
same,MIC S. aureus,S. aureus,16 µg/mL
"FKKFWKWFRRFGGGRWRWRWF-NH2 [FBRW-14, FKKFWKWFRRF-GGG-RWRWRWF*]",MIC S. mitis ATCC 903,S. mitis ATCC 903,64 µg/mL
same,MIC L. casei ATCC 4646,L. casei ATCC 4646,8 µg/mL
same,MIC (fusion library peptides),[1],4 to 16 µg/mL
same,MIC S. sanguinis NY101,S. sanguinis NY101,16 µg/mL
same,MIC V. atypica PK1910,V. atypica PK1910,8 µg/mL
same,MIC S. gordonii Challis DL1,S. gordonii Challis DL1,32 µg/mL
"LRLFLRF [Peptide S3L8-43, LRLFLRF]",MIC L. casei,L. casei,>62.5 µg/mL
same,MIC S. mutans,[1],>125 µg/mL
same,MIC E. faecalis,E. faecalis,>125 µg/mL
same,MIC P. aeruginosa,P. aeruginosa,>125 µg/mL
same,MIC S. aureus,S. aureus,>125 µg/mL
"LRLFLRHRF [Peptide S3L8-41, LRLFLRHRF]",MIC L. casei,L. casei,>62.5 µg/mL
same,MIC S. mutans,[1],16 µg/mL
same,MIC E. faecalis,E. faecalis,62.5 µg/mL
same,MIC P. aeruginosa,P. aeruginosa,>125 µg/mL
same,MIC S. aureus,S. aureus,>125 µg/mL
"LRHRLRHRLIF [Peptide S3L8-31, LRHRLRHRLIF]",MIC L. casei,L. casei,>62.5 µg/mL
same,MIC S. mutans,[1],>125 µg/mL
same,MIC E. faecalis,E. faecalis,125 µg/mL
same,MIC P. aeruginosa,P. aeruginosa,>125 µg/mL
same,MIC S. aureus,S. aureus,>125 µg/mL
"FLHKHLFKHKLF [Peptide S3L8-18, FLHKHLFKHKLF]",MIC L. casei,L. casei,>62.5 µg/mL
same,MIC S. mutans,[1],>125 µg/mL
same,MIC E. faecalis,E. faecalis,>125 µg/mL
same,MIC P. aeruginosa,P. aeruginosa,>125 µg/mL
same,MIC S. aureus,S. aureus,>125 µg/mL
"FIRKFLFKHLF [Peptide S3L8-26, FIRKFLFKHLF]",MIC L. casei,L. casei,16 µg/mL
same,MIC S. mutans,[1],16 µg/mL
same,MIC E. faecalis,E. faecalis,24 µg/mL
same,MIC P. aeruginosa,P. aeruginosa,>125 µg/mL
same,MIC S. aureus,S. aureus,62.5 µg/mL
"FKFLFKHKF [Peptide S3L8-40, FKFLFKHKF]",MIC L. casei,L. casei,62.5 µg/mL
same,MIC S. mutans,[1],30 µg/mL
same,MIC E. faecalis,E. faecalis,62.5 µg/mL
same,MIC P. aeruginosa,P. aeruginosa,>125 µg/mL
same,MIC S. aureus,S. aureus,>125 µg/mL
"IKQLLHFFQRF-NH2 [Peptide B-38, IKQLLHFFQRF*]",MIC S. mitis ATCC 903,S. mitis ATCC 903,64 µg/mL
same,MIC L. casei ATCC 4646,L. casei ATCC 4646,32 µg/mL
same,"activity against S. mutans by MIC, in words",[1],active but to a lesser degree than B-33 or B-34
same,MIC,[1],24 µg/mL
same,MIC S. sanguinis NY101,S. sanguinis NY101,64 µg/mL
same,MIC V. atypica PK1910,V. atypica PK1910,64 µg/mL
same,MIC S. gordonii Challis DL1,S. gordonii Challis DL1,32 µg/mL
"LRLRHRVLF [Peptide S3L8-37, LRLRHRVLF]",MIC L. casei,L. casei,>62.5 µg/mL
same,MIC S. mutans,[1],>125 µg/mL
same,MIC E. faecalis,E. faecalis,>125 µg/mL
same,MIC P. aeruginosa,P. aeruginosa,>125 µg/mL
same,MIC S. aureus,S. aureus,>125 µg/mL
"VLKHVIAHKRLF [Peptide S3L8-25, VLKHVIAHKRLF]",MIC L. casei,L. casei,>62.5 µg/mL
same,MIC S. mutans,[1],>125 µg/mL
same,MIC E. faecalis,E. faecalis,>125 µg/mL
same,MIC P. aeruginosa,P. aeruginosa,>125 µg/mL
same,MIC S. aureus,S. aureus,>125 µg/mL
"LVHKLILRHLLF [Peptide S3L8-22, LVHKLILRHLLF]",MIC L. casei,L. casei,>62.5 µg/mL
same,MIC S. mutans,[1],>125 µg/mL
same,MIC E. faecalis,E. faecalis,>125 µg/mL
same,MIC P. aeruginosa,P. aeruginosa,>125 µg/mL
same,MIC S. aureus,S. aureus,>125 µg/mL
